Experimental data as given in paper PMC10525585, “Evaluation of the Antibacterial Effect of Aurone-Derived Triazoles on Staphylococcus aureus” (Antibiotics, 2023).
Like-named read-outs stand apart in the source and are kept apart here.

Key:
[1] = test system: HepG2 (ATCC HB-8065) cells; assay: Cytotoxicity assay (PrestoBlue); type: cell-based, Human; settings: Table 1 and text; 24 h incubation; read-out: CC50 (µM) HepG2
[2] = Cytotoxicity assay (PrestoBlue); type: cell-based, Human; settings: human, HepG2 cells (ATCC HB-8065), Table 1 and text; 24 h incubation
[3] = test system: methicillin-sensitive S. aureus ATCC 29213 (MSSA); assay: microbe, parasite or virus in culture; settings: for Max SI (CC50/IC50): HepG2 CC50 / MSSA IC50; for IC50 / inhibition at 100 µM: Staphylococcus aureus; for IC50: read-out: IC50 (µM) MSSA; for inhibition at 100 µM: read-out: MSSA inhibition (100µM)
Protocol: (§1) MRSA strain ATCC 43300 and MSSA strain S. aureus ATCC 29213 were grown on Tryptic Soy Agar (TSA) plates. Before use, an isolated colony was transferred from the TSA plate into Tryptic Soy Broth (TSB) and incubated 18–24 h in a humidified incubator at 37 °C. To adjust for a standard concentration of bacteria, the turbidity of the culture was measured at 600 nm, and its optical density (OD600) adjusted to be in the range 0.08–0.12 which equates to a concentration of approximately 1 × 10^8 CFU/mL. This suspension was diluted 1:20 in TSB. […] MRSA strain S. aureus ATCC 43300 and MSSA strain S. aureus ATCC 29213 were used for all testing in this study.
(§2) The assay for anti-Staphylococcal activity of AT compounds was prepared in 96-well transparent, U-bottom plates. A series of 2-fold dilutions of AT concentrations was tested in triplicate, with each well containing 10 µL of prepared bacterium and 90 µL of AT mixture in CAMHB. […] Blank wells with only CAMHB, a negative control well with 10 µL of bacterium solution mixed into 90 µL CAMHB, a vehicle control well with bacteria mixed into 1% DMSO in CAMBH, and a positive cell death control with vancomycin (1 µL of stock 2 mg/mL solution in 89 µL CAMHB with 10 µL of bacteria) were included. The plate was incubated for 18–24 h at 37 °C in a humidified incubator. Before measurement, PrestoBlue^TM dye (Invitrogen, Carlsbad, CA, USA) was added (10 µL per well) and incubated for 1 h with aluminum foil covering the plate. A CLARIOstar® (BMG LABTECH, Cary, NC, USA) multi-mode plate reader was used to measure the fluorescence at wavelengths of 560 nm for excitation and 590 nm for emission. Inhibitory concentration (IC50) values were defined as half inhibitory concentration and were computed using GraphPad Prism version 9.1 software.

[4] = test system: methicillin-resistant S. aureus ATCC 43300 (MRSA); assay: Antibacterial assay (broth microdilution, PrestoBlue); type: cell-based, Staphylococcus aureus
Protocol: as §1, §2

[5] = Cytotoxicity assay (PrestoBlue); settings: human, HeLa cells (ATCC CCL-2)
Protocol: Human HeLa epithelial (ATCC CCL-2) and HepG2 liver epithelial (ATCC HB-8065) cell lines were used to determine toxicity of AT compounds for mammalian cells. The cells were grown in a complete culture medium of RPMI 1640 with 10% heat-inactivated fetal bovine serum (FBS) at 37 °C in 5% CO2 (95% room air) in a humidified incubator. Before use, attached cell monolayers, which had reached at least 90% confluency, were detached by trypsinization with trypsin-EDTA (0.25%) and resuspension in fresh complete culture media. For experiments, the stock concentration of 1 × 10^5 cells/mL (to achieve a final 1 × 10^4 cells/well concentration) was achieved by counting the trypsinized cells and adjusting to their final concentration for assays.
HeLa or HepG2 cells were pre-seeded into a 96-well transparent, flat bottom plate by adding a volume of 100 µL stock cell concentration (1 × 10^5 cells/mL) in complete culture media to each well. The plate was incubated overnight at 37 °C in a 5% CO2 (95% room air) humidified incubator. After the incubation and before mixing in the AT compounds, a 100 µL volume of fresh complete culture media was added to the pre-seeded wells. The 2-fold dilutions of AT compounds in triplicates were prepared on a separate 96-well plate. Once the dilution plate was prepared, dilutions were transferred into the pre-seeded plate to achieve the same concentrations of ATs as for the inhibition assay described above. The final inoculated plate was then returned to the 5% CO2 (95% room air) humidified incubator for an additional 24 h of incubation with the diluted ATs. Controls were blank wells containing only media, wells with cells and DMSO in complete culture media, and wells with cells and complete culture media only. Measurement of toxicity was analogous to the inhibition assay except that 20 µL of PrestoBlue^TM was used and the incubation was 3–6 h before reading with the plate-reader. Cytotoxicity concentration (CC50) was defined as the concentration where half of the cells remained viable and was computed using GraphPad Prism.

[6] = Staphylococcus aureus, Table 1 and text, 18–24 h, CAMHB, read-out: IC50 (µM) MRSA
[7] = Staphylococcus aureus, Table S1, read-out: IC50 MRSA
[8] = Staphylococcus aureus, Table S1
[9] = CC50 (µM) HeLa, Table 1 and text, 24 h incubation

Row | IC50 [3] | IC50 [4, 6] | IC50 [4, 7] | IC50 ([4]; Table 1 and text, 18–24 h, CAMHB, read-out: IC50 (µM) MRSA) | SMILES | CC50 [1] | CC50 at 24 h [2] | Max SI (CC50/IC50) [3] | inhibition at 100 µM [3] | inhibition at 100 µM [4, 8] | CC50 at 24 h [5, 9] | CC50 at 24 h ([5]; CC50 HeLa (µM), Table S1)
1 | 5.44 µM | 22.4 µM | 23.5 µM | – | O=C(c1ccccc1O)c1n[nH]nc1-c1ccc(Cl)cc1 [AT106] | 70.7 µM | > 60 µM | 12.99 | 87.4% | 64.1% | > 60 µM | 16.2 µM
2 | 3.18 µM | 8.29 µM | 35.4 µM | – | O=C(c1ccccc1O)c1n[nH]nc1-c1cccc(C(F)(F)F)c1 [AT116] | – | 50.9 µM | 16.01 | 82% | 100% | 56.8 µM | 11.7 µM
3 | 3.09 µM | < 6 µM | – | 3.87 µM | O=C(c1ccccc1O)c1n[nH]nc1-c1ccc(Br)s1 [AT137] | – | 39.8 µM | – | 87.5% | 93.8% | 2.84 µM | 12.7 µM
